Measurements from US7563862B2, “Neural regeneration peptides and methods for their use in treatment of brain damage” (Neuren Pharmaceuticals Limited, priority 2001, dated 2009).
Values joined by “and” are separate entries in the source; they are usually repeats but may differ in a detail not shown here. Equal entries are not always repeated. Ends that are not written are not given here.

Columns and labels:
[1] = tested on: OTCs of rat embryonic forebrain; test: embryonic forebrain OTC migration assay (medial ganglionic eminence to cortical anlage); type: cell-based
Description: OTCs of rat embryonic forebrain were prepared as described. Briefly, pregnant rats at E17 gestation were sacrificed, the fetuses rapidly removed. Coronal slices of the forebrain were cut at 400 μm thickness and placed onto millicell PICM ORG50 membranes (Millipore) in 3 cm Petri dishes containing 1 ml of DMEMI/F12, 6.5 mg/ml glucose, 0.1 mM glutamine and 10% FCS for 34 hrs. Afterwards the medium was exchanged to 1 ml Neurobasal/B27, 6.5 mg/ml glucose, 0.1 mM glutamine, to which 10 μl PBS, NRP, or SDF-1 were added for the indicated concentrations and a small DiI (1,1′-dioctodecycyl-3,3,3′3-tetramethylindocarbocyanine) crystal of uniform size was placed in the medial ganglionic eminence (n=10-15) under a stereomicroscope. After 24 hrs cultivation the total number or migrated neurons dispersed in the ganglionic eminence and cortex were counted under an inverted fluorescent microscope.

embryonic striatal cells = test: haptotactic migration assay, striatal cells; type: cell-based, rat; settings: dishes coated with 150 ng, 48 hrs
Excerpt: To test the cell adhesion and neuronal migration inducing properties of the NRPs a haptotactic migration cell assay was developed (Lu et al.,2001). For this purpose Transwell® cell culture dishes (Costar) with fitting inserts having pores therein with a 12 μm pore size were used to cultivate striatal and neocortical cells. In general, a test agent was adhered to the surface of a culture dish and an insert having pores was placed in culture medium over but not in contact with the surface of the culture dish. Test cells were placed in the inserts, and any cells migrating through the pores and onto the surface of the culture dish reflected chemattractiveness by the test molecule. Under these conditions, the surface of the culture dish would, over time, release some NRP molecules into the culture medium. It can be appreciated that the concentration of “free” NRP would be greater nearer the surface of the culture dish than at distances farther away from the culture dish, thereby creating a gradient in NRP concentration. […] By counting the number and morphology of such migrant cells, effects of NRPs on neuronal migration and differentiation can be evaluated. […]
For seeding striatal cells, 1.5 ml of Neurobasal/B27 medium was put into the culture dishes and 0.5 ml of NeurobasaVB27 medium was put into the insert. The assay was ready for cell seeding. […]

[2] = tested on: thalamic parvalbumin-ir neurons; test: BrdU/parvalbumin proliferation within thalamocortical OTCs; type: cell-based, rat; settings: 3 nM
Description: Thalamocortical OTCs from rats, as described above in Examples 3 and 4 were incubated at the start of cultivation with 2 μM of BrdU that was removed after 24 hours of cultivation time. OTCs were fixed in 4% paraformaldehyde in 0.1 M phosphate buffer (pH 7.4). Blocking was done in 0.4% Triton and 10% normal goat serum in PBS for 30 minutes. Subsequently the cultures were treated for 30 minutes in 2N HCl at 37° C. and neutralized by 0.1 M Na2B4O7 for 2×5 minutes. Internal peroxidase activity was prevented by 5 minute treatment of the OTCs in 1% H2O2 (only in case of the PAP reaction). Primary antibody (mouse anti-BrdU 1/50-Sigma) reaction was done overnight in 0.4% Triton, 2% BSA in PBS.
Biotinylated goat anti-mouse IgG was applied (1/200 for 2 h) with the subsequent application of the avidin biotin horseradish peroxidase system and the final DAB-detection (0.05%); 0.009% H2O2 enhanced by 0.025% cobalt chloride and 0.02% nickel ammonium sulphate. BrdU-positive nuclei become black stained. […] For double fluorescence detection, mouse anti-BrdU IgG and rabbit anti-parvalbumin IgG (or rabbit anti-calretinin 1/1000) were given simultaneously after the neutralisation step and anti-parvalbumin antibody binding was detected by the biotin-streptavidin/Cy2 detection system while the occurrence of BrdU was monitored by an anti-mouse/Cy3 IgG. […]

SEPEARRAPGRKGGVVCASLAADW-NH2 [NRP-7 segment SW, 24-mer form of mouse NRP-7]
increase in number of migrating neuronal precursor cells [1]: 5 fold | optimum dose [1]: 1 nM

KDPEARRAPGSLHPCLAAS-NH2 [NRP-2 segment KS, 19-mer fragment of NRP-2]
migration induction of striatal neurons (embryonic striatal cells): substantial migration induction

NRP-1: rat 16 amino acid neural regeneration peptide purified from hippocampal OTC supernatant, Tyr Asp Pro Glu ... Cys His-NH2 (YDPEAASAPGSGNPCH-NH2)
parvalbumin-ir thalamic neurons co-localised with BrdU ([2]; 5 days in vitro): 6.8±1.3% and 6.8% | enhanced proliferation of parvalbumin expressing neurons compared to controls ([2]; vs defined medium alone): up to 150%
